Two molecules from PMC3842960, “Natural Stilbenoids Isolated from Grapevine Exhibiting Inhibitory Effects against HIV-1 Integrase and Eukaryote MOS1 Transposase In Vitro Activities” (PLoS ONE, 2013) can be followed below.

Each structure is given as a SMILES string.

The target in test [1] is T1, Mos1 transposase (MOS1) (Drosophila mauritiana, UniProt Q7JQ07).
T1 construct: involving the full-length Mos1 transposase (MOS1) was recently solved; made in house
The test can be described thus: MOS1 in vitro transposition assay (genetic hop experiment). It counts as biochemical, D. mauritiana. The procedure:
The wild type Mos1 transposase (MOS1: 345 amino acids) was produced and purified as a fusion protein linked to the maltose-binding protein by using the pMal-c2 system (New England Biolabs) and following the manufacturer's instructions.
In vitro transposition reactions were performed using pBC-3T3 as both the donor DNA and the target, as previously described. Briefly, the basic transposition reaction mixtures contained 10 mM Tris-HCl (pH 9), 50 mM NaCl, 20 mM MgCl2, 0.5 mM EDTA, 5% glycerol, 5 ng/ml BSA, 600 ng pBC-3T3, and 80 nM purified MBP-MOS1 (added last) in a volume of 20 µl. Inhibitors (25 or 10 µM, as specified) or DMSO (2%) were added to the reaction mixtures before the transposase. The reactions were allowed to proceed for 30 min at 30°C. After phenol-chloroform extraction and ethanol precipitation, 10% of the reaction mixture was transformed in electro-competent JM109 E. coli (2 mm cuvette, 1.5 kV in a MicroPulser™BioRad). Appropriate dilutions of each reaction mixture were plated on LB-tetracycline (12.5 µg/ml) agar and LB-chloramphenicol (80 µg/ml) agar to score the transposition rate. The transposition rate was the number of Tet^R colonies divided by the number of Chloram^R plus Tet^R colonies. Each condition was done at least three times in independent experiments.
To identify the natural stilbenes active on MOS1, the 17 molecules were tested using an in vitro genetic “hop” experiment, which is the most sensitive test available as yet. Purified MOS1 was incubated with the pBC-3T3 plasmid, which was used both as the transposon donor and the target plasmid. This plasmid contains the pBR322 tetracycline resistance gene (without promoter) framed by two Mos1 ITRs. This reconstitutes a pseudo-Mos1 element named 3T3. We took advantage of the fact that the cat gene (present in the pBC backbone) is a hotspot for Mos1 integration. […] Transposition events were recovered by bacterial transformation with selection for tetracycline resistance, as a gain-of-function landmark for transposition. […] Controls correspond to assays performed without molecule but with DMSO, which is routinely used as the solvent. […] To confirm the efficiency of the six molecules, they were similarly assayed at 10 µM ( figure 6B ). Since they appeared to be still active at 10 µM, they were further characterized in order to identify the targeted step of the transposition cycle.

Test [2] has as its target T1, Mos1 transposase (MOS1). Kind of test: MOS1 in vitro ITR integration assay. The conditions noted are these: for inhibition of the integration step: 25 and 10 µM, molecules added after formation of MOS1-ITR complexes. The class given is biochemical, D. mauritiana. How it is done:
These assays were performed using pre-cleaved 3′ITRs (PC-ITR), i.e. ITRs in the configuration expected after excision. […]. Prior to annealing, the transferred strand (70-TS-PC) was 5′-end labelled using T4 polynucleotide kinase (Promega) and γ-^32P-ATP following the manufacturer's instructions. Oligonucleotides were provided by Eurofins MWG Biotech (Germany) or Eurogentec (Belgium). Reaction mixtures containing 10 mM Tris-HCl (pH 9), 50 mM NaCl, 1 mM DTT, 5% glycerol, 100 ng BSA, 100 nM of labelled PC-ITR and 100 nM MBP-MOS1 in a final volume of 20 µl were incubated at 30°C for 30 min. The pBC plasmid (which contained the cat gene, a hot-spot for Mos1 insertion) was then added to 30 ng/µL along with 5 mM MgCl2. Molecules (25 or 10 µM, as specified) or DMSO (2%) were added to the reaction mixtures along with the target DNA to estimate their effect on integration. Reactions were carried out for 3 hours at 30°C. 0.1 mg/ml proteinase K and 0.1% SDS were added to stop the reaction. DNA products were purified by phenol-chloroform extraction and ethanol precipitated using standard techniques. DNA products were resuspended in DNA loading buffer, then separated onto a 1% agarose gel in 1X TAE (Tris Acetate EDTA) buffer. The gel was dried onto a nitrocellulose membrane (Hybond N+, GE Healthcare), scanned using a Storm, and analysed with ImageQuant software. Signals were quantified using ImageQuant software. Efficiency of integration was calculated as the intensity of the integration signal divided by the intensity of free target signal plus integration signal. Each condition was tested at least twice.
The assay used for this step is similar to the HIV-1 IN concerted integration. Briefly, pre-cleaved labelled ITRs are used to form the integration complex. A super-coiled plasmid is used as target DNA. Integration events give a linear labelled plasmid, which can be detected. In these tests, the molecules are added after formation of MOS1-ITR complexes, along with a target plasmid to solely examine the integration inhibition. […] Controls correspond to assays performed without molecule but with DMSO. Reactions were performed at least twice for each selected molecule (leachianol G, leachianol F, quadrangularin A, hopeaphenol, vitisin B and pallidol) and the excision activity is shown in figure 8B .

Another test deals with HIV-1 IN (Human immunodeficiency virus type 1 group M subtype B, UniProt P04585). Kind of test: HIV-1 IN in vitro concerted integration assay (processed or unprocessed donor DNA).

T1 sequence (Q7JQ07 whole entry): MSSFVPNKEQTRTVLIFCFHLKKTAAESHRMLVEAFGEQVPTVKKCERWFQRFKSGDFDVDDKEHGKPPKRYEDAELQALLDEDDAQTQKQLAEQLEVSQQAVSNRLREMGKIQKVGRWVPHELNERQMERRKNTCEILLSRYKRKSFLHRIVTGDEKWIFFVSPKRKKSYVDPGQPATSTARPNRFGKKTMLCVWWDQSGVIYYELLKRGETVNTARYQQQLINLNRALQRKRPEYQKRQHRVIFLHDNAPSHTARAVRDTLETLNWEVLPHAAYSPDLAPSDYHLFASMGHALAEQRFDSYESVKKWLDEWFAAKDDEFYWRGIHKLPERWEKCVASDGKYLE

For `Oc1ccc([C@@H]2c3c(O)cc(O)cc3[C@H]3[C@H](c4ccc(O)cc4)c4c(O)cc(O)cc4[C@@H]23)cc1` [pallidol], the “activity against MOS1 in transposition assay” value (“activity against MOS1” for short) on Mos1 transposase (MOS1) [1] (10 µM) is reported as “still active”; on Mos1 transposase (MOS1) [1] (25 µM), “active against MOS1”. The same molecule came in with an IC50 at Mos1 transposase (MOS1) [2] of about 10 µM. The “inhibition of the integration step” value against Mos1 transposase (MOS1) [2] was “significantly inhibited”. The “inhibition of concerted integration from processed and unprocessed donor” value against HIV-1 IN (increasing concentrations) is “inhibited both activities”.
Consider `Oc1ccc([C@@H]2c3c(O)cc(O)cc3[C@H]3c4c(cc(O)cc4C2C2c4cc(O)cc5c4[C@H](c4cc(O)cc(O)c4[C@H]2c2ccc(O)cc2)[C@@H](c2ccc(O)cc2)O5)O[C@@H]3c2ccc(O)cc2)cc1` (stereo partly shown) [hopeaphenol], for which, at Mos1 transposase (MOS1) [1] (10 µM), the “activity against MOS1” value is given as “still active”. For the same molecule, at Mos1 transposase (MOS1) [1] (25 µM), the “activity against MOS1” value is recorded as “active against MOS1”. Besides, at Mos1 transposase (MOS1) [2], the half-maximal inhibitory concentration (IC50) was about 6.5 µM and the “inhibition of the integration step” value is reported as “significantly inhibited”. In addition, the inhibition at 10 µM at HIV-1 IN (read-out: inhibition of concerted integration) is under 5%.

One may read the IC50 as the point on the concentration scale where inhibition reaches its midpoint.
